We go through 7 compounds from patent publication US4886884A, “Derivatives from cervinomycin based antibiotics” (The Kitazato Institute, priority 1986, dated 1989).

The structures appear in SMILES notation. In brackets after ≈: the same amount, converted by molar mass. Read-outs that look alike come from different tables or passages of the source. A value given as a limit tells only on which side of the number the result lay.

The subject of data set [1] is Gram-positive and Gram-negative bacteria, mycoplasmas. The data set is described as follows: Antimicrobial activity (overall, in words). It is filed as cell-based.
Data set [2] has as its system Peptococcus variabilis KB-235 (ATCC 14955). The data set can be described thus: Antibacterial activity, minimum inhibitory concentration (MIC). It is filed as cell-based.
The test system of data set [3] is Proteus vulgaris KB-127 (IFO 3167). Described as above. The format is cell-based.
In data set [4] the test system is Clostridium perfringens (ATCC 13124). The data set is described as follows: microbe, parasite or virus in culture. The format is cell-based. As to conditions: ATCC13124.
Data set [5] deals with Mycoplasma pneumoniae KB-173. The data set can be described thus: Antibacterial activity, minimum inhibitory concentration (MIC). It is filed as cell-based.
Data set [6] concerns Klebsiella pneumoniae KB-214 (ATCC 10031). The data set is described as above. The format is cell-based.
The test system of data set [7] is Bacillus subtilis KB-211 (ATCC 6633). The description is as above. It is filed as cell-based.
The test system of data set [8] is Pseudomonas aeruginosa KB-115 (IFO 3080). Described as above. The format is cell-based.
Data set [9] deals with Salmonella typhimurium KB-20. The data set is described as above. It is filed as cell-based. As to conditions: Salmonella enterica.
The subject of data set [10] is Micrococcus luteus KB-212 (ATCC 9341). Described as above. The format is cell-based.
The subject of data set [11] is Escherichia coli KB-176 (NIHJ JC-2). The data set is described as above. The format is cell-based.
Data set [12] has as its system Bacteroides fragilis KB-169 (ATCC 23749). Described as above. The format is cell-based.
Data set [13] concerns Acholeplasma laidlawii KB-174 (PG-8). The description is as above. It is filed as cell-based.
Data set [14] in a line: Acute toxicity test by oral administration. As to conditions: mouse, in vivo.
A short description of data set [15]: Solubility in different solvents. As to conditions: organic solvent or mixture. It is filed as physicochemical. From the text:
Compounds (1) of the present invention had the following solubilities in different solvents.

Data set [16] deals with Mycoplasma gallisepticum KB-171 (S-6). The data set can be described thus: Antibacterial activity, minimum inhibitory concentration (MIC). As to conditions: Mycoplasmoides gallisepticum. It is filed as cell-based.
Data set [17] deals with Bacillus cereus KB-143 (IFO 3001). Described as above. It is filed as cell-based.
Data set [18] deals with Staphylococcus aureus KB-210 (ATCC 6538P). The description is as above. The format is cell-based. As to conditions: ATCC6538P.
Data set [19] concerns Clostridium difficile (ATCC 9689). Described as above. It is filed as cell-based. As to conditions: Clostridioides difficile, ATCC9689.
Data set [20] concerns Bifidobacterium bifidum (ATCC 11146). Described as above. It is filed as cell-based.
A short description of data set [21]: in vivo. As to conditions: mouse, po.
The mark [22] stands for this setting: acetic acid, read-out: Solubility in Acetic acid.
Where [23] appears, read: dmso, read-out: Solubility in DMSO.
[24] abbreviates: methanol, read-out: Solubility in Methanol.
[25] abbreviates: inoculum 1 × 10^6 cells/ml, 37° C., read-out: MIC.
[26] abbreviates: IFO3167, inoculum 1 × 10^6 cells/ml, 37° C., read-out: MIC.
Setting [27] is: ATCC10031, inoculum 1 × 10^6 cells/ml, 37° C., read-out: MIC.
Where [28] appears, read: ATCC6633, inoculum 1 × 10^6 cells/ml, 37° C., read-out: MIC.
[29] abbreviates: IFO3080, inoculum 1 × 10^6 cells/ml, 37° C., read-out: MIC.
[30] abbreviates: ATCC9341, inoculum 1 × 10^6 cells/ml, 37° C., read-out: MIC.
[31] abbreviates: ATCC11146, inoculum 1 × 10^6 cells/ml, 37° C., read-out: MIC.
Setting [32] is: NIHJJC2, inoculum 1 × 10^6 cells/ml, 37° C., read-out: MIC.
Where [33] appears, read: ATCC23749, inoculum 1 × 10^6 cells/ml, 37° C., read-out: MIC.
Where [34] appears, read: IFO3001, inoculum 1 × 10^6 cells/ml, 37° C., read-out: MIC.

`COc1cc2oc3c(c(=O)c2cc1OC)C(=O)c1c(ccc2c(C)c4c(c(OC)c12)C(=O)N1CCOC1(C)C4)C3=O` (centres unmarked) [C,O-dimethyl Cervinomycin A2]: the antimicrobial activity entry in [1] is “substantially equal to those of Cervinomycin A1 and A2”.

As to `COc1cc2oc3c(c(=O)c2cc1OC)C(=O)c1c(ccc2c(C)c4c(c(O)c12)C(=O)N1CCOC1(C)C4)C3=O` (centres unmarked) [C-methyl Cervinomycin A2], the antimicrobial activity result in [1] is “substantially equal to those of Cervinomycin A1 and A2”.

Consider `COc1cc2oc3c(O)c4ccc5cc6c(c(O)c5c4c(O)c3c(=O)c2cc1OC)C(=O)N1CCOC1(C)C6` (centres unmarked) [Cervinomycin A1, reference compound], for which the MIC in data set [2] was 0.62 µg/mL (≈ 1.17 µM); in data set [3] (IFO3167) it was > 10 µg/mL; in data set [4], 1.25 µg/mL (≈ 2.36 µM); in [5] (KB173) it was 12.5 µg/mL (≈ 23.6 µM); in [6] (ATCC10031) it was > 10 µg/mL; in data set [7] (ATCC6633) it was 2.5 µg/mL (≈ 4.72 µM). The MIC in [8] (IFO3080) was > 10 µg/mL; in data set [9], > 10 µg/mL; in data set [10] (ATCC9341), 5 µg/mL (≈ 9.44 µM); in data set [11] (NIHJJC2), > 10 µg/mL; in data set [12] (ATCC23749), 1.25 µg/mL (≈ 2.36 µM); in data set [13], 12.5 µg/mL (≈ 23.6 µM). The MIC was found to be 12.5 µg/mL (≈ 23.6 µM) in data set [16], 10 µg/mL (≈ 18.9 µM) in data set [17] (IFO3001) and 5 µg/mL (≈ 9.44 µM) in data set [18]. Also, the LD50 in data set [14] is 320 mg/kg. The solubility in data set [15] (setting [22]) came to 23 µg/mL (≈ 43.4 µM); in [15] (setting [23]), 78 µg/mL (≈ 147 µM); in data set [15] (setting [24]) it was 0.3 µg/mL (≈ 0.567 µM).

In the case of `CCC[C@@H]1C[C@@H](C(=O)N[C@@H]([C@H]2O[C@H](SC)[C@H](O)[C@@H](O)[C@H]2O)[C@H](C)Cl)N(C)C1` [Clindamycin, reference compound], the MIC in data set [2] (setting [25]) is 0.16 µg/mL (≈ 0.376 µM); in [3] (setting [26]) it was > 10 µg/mL; in [4], 0.4 µg/mL (≈ 0.941 µM); in [5] (KB173), 0.62 µg/mL (≈ 1.46 µM); in data set [6] (setting [27]) it was > 10 µg/mL; in [7] (setting [28]), 2.5 µg/mL (≈ 5.88 µM). Moreover, the MIC is > 10 µg/mL in [8] (setting [29]); > 10 µg/mL in [9]; 0.04 µg/mL (≈ 0.0941 µM) in data set [10] (setting [30]); 6.3 µg/mL (≈ 14.8 µM) in [19] (setting [25]); 0.02 µg/mL (≈ 0.0471 µM) in data set [20] (setting [31]); > 10 µg/mL in data set [11] (setting [32]). The MIC in [12] (setting [33]) turned out to be 0.08 µg/mL (≈ 0.188 µM); in data set [13], 0.62 µg/mL (≈ 1.46 µM); in data set [16], 0.62 µg/mL (≈ 1.46 µM); in data set [17] (setting [34]), 0.63 µg/mL (≈ 1.48 µM); in [18] (setting [25]), 0.16 µg/mL (≈ 0.376 µM).

With `COc1cc2oc3c(c(=O)c2cc1OC)C(=O)c1c(ccc2cc4c(c(OC(C)=O)c12)C(=O)N1CCOC1(C)C4)C3=O` (centres unmarked) [Monoacetyl Cervinomycin A2, monoacetyl Cervinomycin A2], the LD50 in data set [21] stood at 1800 mg/kg. In addition, the MIC in data set [3] (setting [26]) was > 10 µg/mL; in data set [4], 0.02 µg/mL (≈ 0.0351 µM); in data set [5] (KB173, inoculum 1 × 10^6 cells/ml, 37° C., read-out: MIC) it was 0.6 µg/mL (≈ 1.05 µM); in data set [6] (setting [27]), > 10 µg/mL; in [7] (setting [28]) it was 0.08 µg/mL (≈ 0.14 µM); in data set [8] (setting [29]) it was > 10 µg/mL. Moreover, the MIC in data set [9] (setting [25]) was > 10 µg/mL; in data set [10] (setting [30]) it was 0.4 µg/mL (≈ 0.702 µM); in data set [19] (setting [25]) it was 0.05 µg/mL (≈ 0.0878 µM); in data set [20] (setting [31]), 0.2 µg/mL (≈ 0.351 µM); in [11] (setting [32]), > 10 µg/mL; in data set [12] (setting [33]), 0.1 µg/mL (≈ 0.176 µM). The MIC in data set [13] (setting [25]) was found to be 1.25 µg/mL (≈ 2.19 µM); in data set [16] (setting [25]) it was 1.25 µg/mL (≈ 2.19 µM); in data set [17] (setting [34]) it was 0.16 µg/mL (≈ 0.281 µM); in [18] (setting [25]) it was 0.31 µg/mL (≈ 0.544 µM). Moreover, the solubility in data set [15] (setting [22]) came out at 3000 µg/mL (≈ 5270 µM); in data set [15] (setting [23]) it was 5000 µg/mL (≈ 8780 µM); in data set [15] (setting [24]) it was 300 µg/mL (≈ 527 µM).

Regarding `COc1cc2oc3c(c(=O)c2cc1OC)C(=O)c1c(ccc2cc4c(c(OC)c12)C(=O)N1CCOC1(C)C4)C3=O` (centres unmarked) [O-methyl Cervinomycin A2], the antimicrobial activity result in data set [1] is “substantially equal to those of Cervinomycin A1 and A2”.

As for `COc1cc2oc3c(OC(C)=O)c4ccc5cc6c(c(OC(C)=O)c5c4c(OC(C)=O)c3c(=O)c2cc1OC)C(=O)N1CCOC1(C)C6` (centres unmarked) [Triacetyl Cervinomycin A1, triacetyl Cervinomycin A1], the MIC in [2] was 0.02 µg/mL (≈ 0.0305 µM); in data set [3] (IFO3167), > 10 µg/mL; in [4], 0.02 µg/mL (≈ 0.0305 µM); in data set [5] (KB173) it was 0.156 µg/mL (≈ 0.238 µM); in data set [6] (ATCC10031), > 10 µg/mL; in data set [7] (ATCC6633), > 0.02 µg/mL. For the same compound, the MIC is > 10 µg/mL in data set [8] (IFO3080); > 10 µg/mL in [9]; 0.08 µg/mL (≈ 0.122 µM) in data set [10] (ATCC9341); 0.05 µg/mL (≈ 0.0763 µM) in data set [19]; 0.2 µg/mL (≈ 0.305 µM) in data set [20] (ATCC11146); > 10 µg/mL in data set [11] (NIHJJC2). Besides, the MIC in data set [12] (ATCC23749) stood at 0.1 µg/mL (≈ 0.153 µM); in data set [13] it was 0.312 µg/mL (≈ 0.476 µM); in data set [16], 0.156 µg/mL (≈ 0.238 µM); in data set [17] (IFO3001), 0.31 µg/mL (≈ 0.473 µM); in data set [18], 0.16 µg/mL (≈ 0.244 µM). Moreover, in [14], the LD50 stood at 1620 mg/kg. In addition, the solubility was > 25000 µg/mL in [15] (setting [22]), > 50000 µg/mL in [15] (setting [23]) and 1400 µg/mL (≈ 2140 µM) in data set [15] (setting [24]).
